Assay results as given in ChEMBL document CHEMBL5728770, “Heterocycle comprising tyrosine kinase inhibitors” (2021).

These compounds were tested against Tyrosine-protein kinase BTK (Homo sapiens, UniProt Q06187) (assay: Enzymatic Activity Assay: A Caliper-based kinase assay (Caliper Life Sciences, Hopkinton, Mass.) was used to measure inhibition of BTK kinase activity of a compound of the present disclosure. Serial dilutions of test compounds were incubated with human recombinant BTK (0.5 nM), ATP (16 μM) and a phosphoacceptor peptide substrate FAM-GEEPLYWSFPAKKK-NH2 (1 μM) at room temperature for 3 h. The reaction was then terminated with EDTA, final concentration 20 mM and the phosphorylated reaction product was quantified on a Caliper Desktop Profiler (Caliper LabChip 3000). Percent inhibition was calculated for each compound dilution and the concentration that produced 50% inhibition was calculated.).
Sequence of Tyrosine-protein kinase BTK (Q06187 whole entry): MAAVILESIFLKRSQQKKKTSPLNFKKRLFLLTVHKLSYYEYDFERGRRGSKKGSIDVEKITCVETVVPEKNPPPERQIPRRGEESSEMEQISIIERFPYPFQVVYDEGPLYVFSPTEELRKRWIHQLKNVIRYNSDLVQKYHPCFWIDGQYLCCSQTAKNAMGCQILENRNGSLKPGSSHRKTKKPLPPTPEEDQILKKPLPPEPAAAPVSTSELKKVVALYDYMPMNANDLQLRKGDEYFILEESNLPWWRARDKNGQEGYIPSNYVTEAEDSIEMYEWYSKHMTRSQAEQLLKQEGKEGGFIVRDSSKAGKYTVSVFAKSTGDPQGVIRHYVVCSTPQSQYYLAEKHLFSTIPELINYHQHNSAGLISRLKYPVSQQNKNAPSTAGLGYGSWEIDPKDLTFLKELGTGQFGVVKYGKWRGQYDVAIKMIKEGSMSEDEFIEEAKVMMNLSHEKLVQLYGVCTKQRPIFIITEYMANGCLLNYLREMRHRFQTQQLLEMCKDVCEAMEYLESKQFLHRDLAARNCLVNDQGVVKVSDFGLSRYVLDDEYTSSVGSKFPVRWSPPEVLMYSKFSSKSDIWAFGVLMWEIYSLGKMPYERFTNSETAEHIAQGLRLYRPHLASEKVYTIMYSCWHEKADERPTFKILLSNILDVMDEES
In the case of `CN1CCN(C(C)(C)C=C(C#N)C(=O)N2CCC[C@@H](c3nc(-c4ccc(Oc5ccccc5)cc4F)c4c(N)nccn34)C2)CC1=O`, the IC50 is reported as 2.6 nM. With `CC(C)(C=C(C#N)C(=O)N1CCC[C@@H](c2nc(-c3ccc(Oc4ccccc4)cc3F)c3c(N)nccn23)C1)N1CCN(C2(C)COC2)CC1` the IC50 was 2.4 nM. `Cc1cc(-c2nn([C@@H]3CCCN(C(=O)C(C#N)=CC(C)(C)N4CCN(C5COC5)CC4)C3)c3ccnc(N)c23)ccc1Oc1ccccc1` was tested, and the IC50 was 1.3 nM. In the case of `CC(C)(C=C(C#N)C(=O)N1CCC[C@@H](n2nc(-c3ccc(C(=O)Nc4ccccn4)cc3)c3c(N)nccc32)C1)N1CCN(C2COC2)CC1`, the IC50 is reported as 2.2 nM. For `CC(C)(C=C(C#N)C(=O)N1CCC[C@@H](n2nc(-c3ccc(Oc4ccccc4)cc3F)c3c(N)nccc32)C1)N1CCN(C2COC2)CC1`, the IC50 was 1.4 nM. `CC(C)(C=C(C#N)C(=O)N1CCC[C@@H](n2nc(-c3ccc(Oc4ccccc4)cc3F)c3c(N)ncnc32)C1)N1CCN(C2(C)COC2)CC1` was tested, and the IC50 was 0.3 nM. For `CC(C)(C=C(C#N)C(=O)N1CCC[C@@H](n2nc(-c3ccc(Oc4ccccc4)cc3F)c3c(N)nccc32)C1)C1(C)CCN(C2COC2)CC1`, the IC50 was 45.7 nM. `CC(C)(C=C(C#N)C(=O)N1CCC[C@@H](n2nc(-c3ccc(Oc4ccccc4)cc3F)c3c(N)nccc32)C1)N1CCN(C2(C)COC2)CC1` was tested, and the IC50 was 0.8 nM. Compound `CC(C)(C=C(C#N)C(=O)N1CCC[C@@H](n2nc(-c3ccc(Oc4ccccc4F)cc3)c3c(N)nccc32)C1)N1CCN(C2COC2)CC1` has an IC50 of 2.2 nM.
